Data on 26 molecules can be found in patent US11667652B2, “MCL1 inhibitors” (Gilead Sciences, Inc., priority 2019, dated 2023).

“And” between values parts separate entries of the source, which are not always exact repeats. Equal entries are not always repeated. Where two headings read alike, the source gives them in different places.

The test system of one assay is SKBR3 cells. The assay can be described thus: SKBR3 Cell Viability Assay. The note with it: CellTiter Glo, read-out: MCL1 CV SKBR3 EC50. The assay is classed as cell-based. On the procedure:
SKBR3 Cell Viability Assay Materials
SKBR3 Cells (ATCC HTB-30) were obtained from ATCC (Manassas, Va.) and cultured in McCoy 5A's medium (ATCC 30-2007)+10% fetal bovine serum (SH30071.03, HyClone, Pittsburgh, Pa.) plus 1× Penicillin-Streptomycin L-glutamine (Corning 30-009-CI, Corning, N.Y.).
The cell viability assay was conducted in a 384-well tissue culture plate (Grenier 781086, Monroe, N.C.) in a total volume of 70 μL. Test compounds were prepared in 1,000×, serially diluted, and pre-spotted into 384-well tissue culture plate by Echo 555 Liquid Handler (Labcyte Inc., San Jose, Calif.). Seventy μL of 6,000 SKBR3 cells were dispensed into each well of the plate and incubated at 37° C. with 5% CO2 for 72 hours. At the end of incubation, 2× CellTiter Glo (CTG) reagents (1 part buffer with 2 parts substrate) (Promega, Madison, Wis.) were prepared, and the plate and the reagent were equilibrated to room temperature for 30 minutes. CTG reagent was added to each plate by Biomek FX at 20 μL/well with 5 times pipetting and mixing to induce cell lysis. Luminescence was read by Envision multimode reader (PerkinElmer). Percent inhibition was calculated as followed: % Inhibition=100%*(Well−Neg)/(Pos−Neg) Neg, negative control, DMSO Pos, positive control, 10 μM Puromycin

In another assay the target is MCL1/Bim (Homo sapiens (Human), UniProt Q07820). Briefly: MCL1/Bim Binding AlphaLISA Assay. The note with it: recombinant human 6xHis-MCL1 (171-327), biotinylated Bim peptide (51-76). The protocol: MCL1/Bim Binding AlphaLISA Assay.
MCL1/Bim, sequence (Q07820 171-327): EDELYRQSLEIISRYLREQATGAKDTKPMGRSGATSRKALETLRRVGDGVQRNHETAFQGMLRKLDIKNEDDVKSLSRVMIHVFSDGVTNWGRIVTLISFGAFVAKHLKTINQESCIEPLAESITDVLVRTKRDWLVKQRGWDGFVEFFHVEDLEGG
Inhibition of the MCL1 and Bim interaction was measured in the following AlphaLISA assay.
Recombinant human MCL1 protein (C-terminal 6×His Tagged MCL1 containing residues 171-327) was generated at Gilead Sciences, Inc. (Foster City, Calif.). A biotinylated peptide derived from human Bim (residues 51-76) was purchased from CPC Scientific (Sunnyvale, Calif.). (CPC 834113). AlphaLISA anti-6His- acceptor beads (AL128R), AlphaScreen Streptavidin donor beads (6760002B), and Proxiplate-384 Plus (6008289) were purchased from PerkinElmer.
The AlphaLISA assay was performed in a 384-well Proxiplate in a total volume of […]. The reaction mixture contained 0.0625 nM 6×His-MCL1 (171-327), 0.0625 nM biotinylated-Bim peptide, 10 μg/mL AlphaLISA anti-6×His-AlphaLISA acceptor beads, 40 μg/mL AlphaScreen streptavidin donor beads, and serially diluted test compounds in the binding buffer (20 mM Hepes, pH 7.5 (Teknova H1035); 150 mM NaCl (Promega V4221); 0.002% Brij 35 (Thermo Scientific 20150); 1 mM Dithiothreitol (DTT) Solution (Affymetrix 70726); 0.01% BSA (BioLabs B9000S)). 1,000× test compounds were pre-spotted onto 384-well Proxiplate (Labcyte Echo) by Echo 555 Liquid Handler (Labcyte Inc., San Jose, Calif.) followed by incubation of 5 μL MCL1(171-327) for 1 hour. Then 5 μL Bim (51-76) was added and incubated for 2 hours. Five μL AlphaLISA anti-6His-AlphaLISA acceptor beads were then added for 1 hour followed by addition of 5 μL AlphaScreen streptavidin donor beads for 1 hour. The reaction plates were then read on an Envision multimode reader (PerkinElmer) using AlphaScreen settings. Percent inhibition was calculated as shown below: % Inhibition=100%*(Well−Neg)/(Pos−Neg) Neg: negative control, DMSO Pos: positive control, no MCL1 protein, no biotinylated-Bim peptide
For orientation: In Alpha technology, singlet oxygen from a donor bead excites a nearby acceptor bead.

The mark [1] stands for this setting: Homo sapiens, SK-BR-3, 72 hours.

Take `COc1nn(C)cc1C(=O)N[S@@]1(=O)=NC(=O)c2ccc3c(c2)N(C[C@@H]2CC[C@H]2[C@@H](OC)/C=C/C(O)(CC(=O)N(C)C)[C@H](C)C1)C[C@@]1(CCCc2cc(Cl)ccc21)CO3` (mixture of isomers) [Example 124]: the EC50 in the assay on SKBR3 cells (setting [1]) is 10.1 nM. For the same molecule, the IC50 on MCL1/Bim was 0.033 nM.
For `COc1nn(C)cc1C(=O)N[S@@]1(=O)=NC(=O)c2ccc3c(c2)N(C[C@@H]2CC[C@H]2/C=C/CC[C@H](C)C1)C[C@@]1(CCCc2cc(Cl)ccc21)CO3` (mixture of isomers) [Example 129], in the assay on SKBR3 cells (72 hours), the EC50 stood at 1210 nM. Moreover, the IC50 on MCL1/Bim came out at 0.142 nM.
For `COc1nn(C)cc1C(=O)N[S@@]1(=O)=NC(=O)c2ccc3c(c2)N(C[C@@H]2CC[C@H]2C/C=C/C[C@H](C)C1)C[C@@]1(CCCc2cc(Cl)ccc21)CO3` (mixture of isomers) [Example 130], in that order: 2560 nM and 0.46 nM.
For `CCCO[C@H]1/C=C/C[C@H](C)C[S@@](=O)(NC(=O)c2cn(C)nc2OC)=NC(=O)c2ccc3c(c2)N(C[C@@H]2CC[C@H]21)C[C@@]1(CCCc2cc(Cl)ccc21)CO3` (mixture of isomers) [Example 137], in that order: 561 nM and 1.77 nM.
For `COc1nn(C)cc1C(=O)N[S@@]1(=O)=NC(=O)c2ccc3c(c2)N(C[C@@H]2CC[C@H]2[C@H]2OCCCC2CC[C@H](C)C1)C[C@@]1(CCCc2cc(Cl)ccc21)CO3` (mixture of isomers) [Example 138], in that order: 1050 nM and 1.54 nM.
With `COc1nn(C)cc1C(=O)N[S@@]1(=O)=NC(=O)c2ccc3c(c2)N(C[C@@H]2CC[C@H]2[C@H]2OC(O)C[C@@H]2CC[C@H](C)C1)C[C@@]1(CCCc2cc(Cl)ccc21)CC3` (mixture of isomers) [Example 150], the concentration for a half-maximal effect (EC50) in the assay on SKBR3 cells (setting [1]) is 114 nM. The half-inhibitory concentration (IC50) at MCL1/Bim came to 0.035 nM.
For `COc1nn(C)cc1C(=O)N[S@@]1(=O)=NC(=O)c2ccc3c(c2)N(C[C@@H]2CC[C@H]2[C@H]2OCC[C@@H]2C[C@H](OC)[C@H](C)C1)C[C@@]1(CCCc2cc(Cl)ccc21)CO3` (mixture of isomers) [Example 155], in that order: 88.9 nM and 0.072 nM.
For `CO[C@H]1/C=C/C[C@H](C)C[S@@](=O)(NC(=O)N[C@H]2C[C@@H]2OC)=NC(=O)c2ccc3c(n2)N(C[C@@H]2CC[C@H]21)C[C@@]1(CCCc2cc(Cl)ccc21)CO3` (mixture of isomers) [Example 188], in that order: 31.9 nM and 0.06 nM.
For `COc1nn(C)cc1C(=O)N[S@@]1(=O)=NC(=O)c2ccc3c(n2)N(C[C@@H]2CC[C@H]2[C@@H](OC)/C=C/[C@H](O)[C@H](C)C1)C[C@@]1(CCCc2cc(Cl)ccc21)CO3` (mixture of isomers) [Example 196], in that order: 81.4 nM and 0.04 nM.
For the molecule `CO[C@H]1/C=C/C[C@H](C)C[S@@](=O)(Nc2cnccn2)=NC(=O)c2ccc3c(c2)N(C[C@@H]2CC[C@H]21)C[C@@]1(CCCc2cc(Cl)ccc21)CO3` [Example 1], in the assay on SKBR3 cells (setting [1]), the 50% effective concentration (EC50) amounted to 1390 nM. In addition, on MCL1/Bim, the concentration for half-maximal inhibition (IC50) turned out to be 0.221 nM.
On to `CO[C@H]1/C=C/C[C@H](C)C[S@@](=O)(Nc2ncnc3c2cnn3C)=NC(=O)c2ccc3c(c2)N(C[C@@H]2CC[C@H]21)C[C@@]1(CCCc2cc(Cl)ccc21)CO3` [Example 4], for which the EC50 in the assay with SKBR3 cells (setting [1]) is 240 nM. The half-maximal inhibitory concentration (IC50) at MCL1/Bim was 0.196 nM.
Consider `CO[C@H]1/C=C/C[C@H](C)C[S@@](=O)(Nc2cnc(C#N)cn2)=NC(=O)c2ccc3c(c2)N(C[C@@H]2CC[C@H]21)C[C@@]1(CCCc2cc(Cl)ccc21)CO3` [Example 5], for which the EC50 with SKBR3 cells (setting [1]) was 4180 nM. Besides, the IC50 at MCL1/Bim was 0.584 nM.
For `CO[C@H]1/C=C/C[C@H](C)C[S@@](=O)(Nc2cncc(C#N)n2)=NC(=O)c2ccc3c(c2)N(C[C@@H]2CC[C@H]21)C[C@@]1(CCCc2cc(Cl)ccc21)CO3` [Example 6], in that order: 4390 nM and 0.891 nM.
In the case of `CO[C@H]1/C=C/C[C@H](C)C[S@@](=O)(Nc2ncnc3nn(C)cc23)=NC(=O)c2ccc3c(c2)N(C[C@@H]2CC[C@H]21)C[C@@]1(CCCc2cc(Cl)ccc21)CO3` [Example 8], the 50% effective concentration (EC50) in the assay on SKBR3 cells (setting [1]) stood at 26.5 nM. Moreover, the 50% inhibitory concentration (IC50) on MCL1/Bim came out at 0.061 nM.
For `CO[C@H]1/C=C/C[C@H](C)C[S@@](=O)(Nc2nc(Cl)nc3nn(C)cc23)=NC(=O)c2ccc3c(c2)N(C[C@@H]2CC[C@H]21)C[C@@]1(CCCc2cc(Cl)ccc21)CO3` [Example 9], in that order: 170 nM and 0.11 nM.
Taken in the same sequence, the figures for `COc1nc(N[S@@]2(=O)=NC(=O)c3ccc4c(c3)N(C[C@@H]3CC[C@H]3[C@@H](OC)/C=C/C[C@H](C)C2)C[C@@]2(CCCc3cc(Cl)ccc32)CO4)c2cn(C)nc2n1` [Example 10] were 47.6 nM and 0.084 nM.
Taken in the same sequence, the figures for `CO[C@H]1/C=C/C[C@H](C)C[S@@](=O)(Nc2nc(C)nc3nn(C)cc23)=NC(=O)c2ccc3c(c2)N(C[C@@H]2CC[C@H]21)C[C@@]1(CCCc2cc(Cl)ccc21)CO3` [Example 12] were 38.7 nM and 0.129 nM.
Regarding `COc1nnc(NS2(=O)=NC(=O)c3ccc4c(c3)N(C[C@@H]3CC[C@H]3[C@@H](OC)/C=C/C[C@H](C)C2)C[C@@]2(CCCc3cc(Cl)ccc32)CO4)c2nn(C)cc12` (stereo partly shown) [Example 17], in the assay with SKBR3 cells (72 hours), the EC50 was 4550 nM. Besides, the IC50 on MCL1/Bim worked out at 2.39 nM.
Turning to `CNc1nc(N[S@@]2(=O)=NC(=O)c3ccc4c(c3)N(C[C@@H]3CC[C@H]3[C@@H](OC)/C=C/C[C@H](C)C2)C[C@@]2(CCCc3cc(Cl)ccc32)CO4)c2cn(C)nc2n1` [Example 18], the half-maximal effective concentration (EC50) in the assay with SKBR3 cells (setting [1]) turned out to be 19.6 nM. Moreover, the IC50 at MCL1/Bim came out at 0.042 nM.
Taken in the same sequence, the figures for `CO[C@H]1/C=C/C[C@H](C)C[S@@](=O)(Nc2nc(N(C)C)nc3nn(C)cc23)=NC(=O)c2ccc3c(c2)N(C[C@@H]2CC[C@H]21)C[C@@]1(CCCc2cc(Cl)ccc21)CO3` [Example 19] were 37.8 nM and 0.066 nM.
Consider `CO[C@H]1/C=C/C[C@H](C)C[S@@](=O)(Nc2nc(NCCN3CCOCC3)nc3nn(C)cc23)=NC(=O)c2ccc3c(c2)N(C[C@@H]2CC[C@H]21)C[C@@]1(CCCc2cc(Cl)ccc21)CO3` [Example 20], for which, in the assay with SKBR3 cells (setting [1]), the half-maximal effective concentration (EC50) was found to be 41.3 nM. Also, the IC50 on MCL1/Bim came to 0.313 nM.
For `COc1ccc2c(N[S@@]3(=O)=NC(=O)c4ccc5c(c4)N(C[C@@H]4CC[C@H]4[C@@H](OC)/C=C/C[C@H](C)C3)C[C@@]3(CCCc4cc(Cl)ccc43)CO5)ncnc2c1` [Example 21], in that order: 882 nM and 0.156 nM.
Consider `COc1ncc2c(N[S@@]3(=O)=NC(=O)c4ccc5c(c4)N(C[C@@H]4CC[C@H]4[C@@H](OC)/C=C/C[C@H](C)C3)C[C@@]3(CCCc4cc(Cl)ccc43)CO5)ncnc2n1` [Example 22], for which, in the assay with SKBR3 cells (setting [1]), the EC50 was determined as 169 nM. The IC50 at MCL1/Bim came out at 0.121 nM.
Regarding `CO[C@H]1/C=C/C[C@H](C)C[S@@](=O)(NC(=O)c2cn(C)nc2N2CCN3CCOC[C@@H]3C2)=NC(=O)c2ccc3c(c2)N(C[C@@H]2CC[C@H]21)C[C@@]1(CCCc2cc(Cl)ccc21)CO3` [Example 23], the EC50 in the assay with SKBR3 cells (setting [1]) came to 17.3 nM. The IC50 on MCL1/Bim was determined as 0.083 nM.
For `CO[C@H]1/C=C/C[C@H](C)C[S@@](=O)(NC(=O)c2cn(C)nc2N2CCN(C3COC3)CC2)=NC(=O)c2ccc3c(c2)N(C[C@@H]2CC[C@H]21)C[C@@]1(CCCc2cc(Cl)ccc21)CO3` [Example 24], in that order: 10.3 nM and 0.026 nM.
Turning to `CO[C@H]1/C=C/CCC[S@@](=O)(Nc2ncnc3nn(C)cc23)=NC(=O)c2ccc3c(c2)N(C[C@@H]2CC[C@H]21)C[C@@]1(CCCc2cc(Cl)ccc21)CO3` [Example 26], the concentration giving a half-maximal response (EC50) in the assay on SKBR3 cells (setting [1]) stood at 119 nM. For the same molecule, on MCL1/Bim, the IC50 is 0.224 nM and 0.233 nM.

Broadly, the EC50 is the concentration giving half of the maximal effect. In general, IC50 refers to the point on the concentration scale where inhibition reaches its midpoint.
